Source: EP3388430A1, “COMPOUND, COMPOUND FOR USE IN THE TREATMENT OF A PATHOLOGICAL CONDITION, A PHARMACEUTICAL COMPOSITION AND A METHOD FOR PREPARING SAID COMPOUND” (Technische Universität München, priority 2017, dated 2018)

Key:
[1] = biological target: T1, EphA2 (Homo sapiens, UniProt P29317); test: Chemical proteomic affinity matrix competition binding in cell lysate (Kd app, CATDS); details: CATDS (EphA2) at the concentration corresponding to the Kd app for EphA2; compared with dasatinib
T1 construct: enrichment of ATP-pocket containing proteins (mainly kinases) from complex native cell lysates; endogenous in cells; host or cells: native cell lysate
Source text: Several of the compounds according to the invention were further evaluated by a chemical proteomic approach facilitating the identification and quantification of drug-protein interactions. This technology utilizes an affinity matrix comprising five immobilized broad spectrum kinase inhibitors for enrichment of ATP-pocket containing proteins (mainly kinases) from complex native cell lysates as described in Bantscheff et al, Nat Biotechnol., 2007, 25(9):1035-44 and Médard et al, L Proteome Res., 2015, 14(3):1574-86. Coupled to quantitative mass spectrometry readout, this chemical proteomic approach allows for the simultaneous identification and quantification of about 300 native human protein kinases. […]
The compounds according to the invention were tested in nine different concentrations (including a DMSO control) ranging from 3 nM to 30 µM. […] Compound selectivity was determined by calculation of a selectivity score named CATDS (concentration and target dependent selectivity). […] It is calculated by dividing the target binding of the target protein (in this case EphA2) by the sum of all target bindings (including the target protein of interest, in this case EphA2) at a particular concentration (in this case the concentration corresponding to the Kd^app value of a compound for EphA2). […]

[2] = test system: SF-268 cells; test: SF-268 cell viability, resazurin-based assay; details: Homo sapiens, SF-268, 72 h; three days of treatment; three biological and three technical replicates, Fig. 8; read-out: cellular potency (EC50), SF-268 cell viability
Description: The dependency of viability of SF-268 cells on EphA2 expression was validated by siRNA knockdown experiments. SF-268 cells were treated with four siRNAs targeting EphA2 expression independently and a mixture of the four siRNAs. Experiments were performed in three biological and three technical replicates. Cell death siRNA and scrambled siRNA were used as positive and negative controls. After six days of treatment, cellular viability was determined by a resazurin-based assay system measuring the reduction of resazurin as a function of metabolic activity.
Cellular potency was determined as EC50 value after three days of treatment using the above mentioned resazurin-based assay system in three biological and three technical replicates.

T1 sequence (P29317 24-976): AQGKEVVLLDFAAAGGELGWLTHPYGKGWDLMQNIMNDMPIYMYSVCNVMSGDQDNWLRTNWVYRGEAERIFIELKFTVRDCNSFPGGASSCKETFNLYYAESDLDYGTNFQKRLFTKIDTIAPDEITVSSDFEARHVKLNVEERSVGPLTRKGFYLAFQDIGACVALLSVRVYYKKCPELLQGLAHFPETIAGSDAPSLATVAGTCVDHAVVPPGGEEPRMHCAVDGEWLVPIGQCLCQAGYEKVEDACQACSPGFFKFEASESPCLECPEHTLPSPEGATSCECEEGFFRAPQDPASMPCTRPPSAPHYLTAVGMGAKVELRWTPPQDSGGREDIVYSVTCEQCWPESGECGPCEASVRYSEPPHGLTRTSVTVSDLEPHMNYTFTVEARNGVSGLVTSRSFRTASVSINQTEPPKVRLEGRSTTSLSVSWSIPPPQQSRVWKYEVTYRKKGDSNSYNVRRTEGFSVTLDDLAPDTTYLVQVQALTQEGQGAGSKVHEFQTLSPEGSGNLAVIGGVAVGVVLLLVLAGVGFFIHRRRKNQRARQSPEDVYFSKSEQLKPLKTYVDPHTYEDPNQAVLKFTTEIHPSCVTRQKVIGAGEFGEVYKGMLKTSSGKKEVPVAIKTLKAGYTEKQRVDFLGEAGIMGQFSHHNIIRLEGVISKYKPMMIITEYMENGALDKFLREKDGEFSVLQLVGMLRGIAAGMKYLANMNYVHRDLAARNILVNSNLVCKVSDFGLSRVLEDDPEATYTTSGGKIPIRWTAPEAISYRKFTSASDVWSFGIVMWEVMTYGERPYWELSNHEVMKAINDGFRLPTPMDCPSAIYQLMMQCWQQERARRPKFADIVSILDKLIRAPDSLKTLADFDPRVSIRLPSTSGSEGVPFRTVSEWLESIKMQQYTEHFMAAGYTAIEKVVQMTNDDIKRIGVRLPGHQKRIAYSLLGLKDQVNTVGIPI

Row | Compound | selectivity for EphA2 binding (CATDS) [1] | EC50 [2] [nM]
1 | Cc1cccc(Cl)c1NC(=O)c1cnc(Nc2cccc(C(=O)NC3CCNCC3(F)F)c2)s1 (stereo not shown) [Compound 28, N-(2-chloro-6-methylphenyl)-2-((3-((3,3-difluoropiperidin-4-yl)carbamoyl)phenyl)amino)thiazole-5-carboxamide] | improved selectivity | –
2 | Cc1cccc(Cl)c1NC(=O)c1cnc(Nc2cc(N3CCOCC3)cc(N3CCOCC3)c2)s1 [Compound 40, N-(2-chloro-6-methylphenyl)-2-((3,5-dimorpholinophenyl)amino)thiazole-5-carboxamide] | improved selectivity | 94
3 | Cc1cccc(Cl)c1NC(=O)c1cnc(Nc2cc(N3CCOCC3)cc(S(C)(=O)=O)c2)s1 [Compound 41, N-(2-chloro-6-methylphenyl)-2-((3-(methylsulfonyl)-5-morpholinophenyl)amino)thiazole-5-carboxamide] | – | 504
